Test results taken from paper PMC9090415, “Discovery of small molecule inhibitors of Plasmodium falciparum apicoplast DNA polymerase” (Journal of Enzyme Inhibition and Medicinal Chemistry, 2022).

Molecular target: P. falciparum apicoplast DNA polymerase (Pf-apPOL) (Plasmodium falciparum, UniProt Q8ILY1)
Experiment: Fluorescence-based high-throughput DNA polymerase assay (molecular beacon), primary screen and dose-response
Format: biochemical
Details: for DNA Pol: 90 min, 10 µM; for IC50: supplemental file 2, sheet IC50 nontoxic compounds, Pf-apPOL
Procedure, shortened: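 Single-point screening used 10 µM compound with 20 nM polymerase, 20 nM hairpin substrate and 6 µM dNTPs for 90 min at 25 °C. Confirmatory titrations (2.5–80 µM) followed fluorescence at three times, and IC50 was derived from a fit including a cooperativity term n.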

[1] = primary screen value by plate and well
[2] = primary screen value of the 186 hits, unit not given

Chain of P. falciparum apicoplast DNA polymerase (Pf-apPOL) (Q8ILY1 entry or part of it): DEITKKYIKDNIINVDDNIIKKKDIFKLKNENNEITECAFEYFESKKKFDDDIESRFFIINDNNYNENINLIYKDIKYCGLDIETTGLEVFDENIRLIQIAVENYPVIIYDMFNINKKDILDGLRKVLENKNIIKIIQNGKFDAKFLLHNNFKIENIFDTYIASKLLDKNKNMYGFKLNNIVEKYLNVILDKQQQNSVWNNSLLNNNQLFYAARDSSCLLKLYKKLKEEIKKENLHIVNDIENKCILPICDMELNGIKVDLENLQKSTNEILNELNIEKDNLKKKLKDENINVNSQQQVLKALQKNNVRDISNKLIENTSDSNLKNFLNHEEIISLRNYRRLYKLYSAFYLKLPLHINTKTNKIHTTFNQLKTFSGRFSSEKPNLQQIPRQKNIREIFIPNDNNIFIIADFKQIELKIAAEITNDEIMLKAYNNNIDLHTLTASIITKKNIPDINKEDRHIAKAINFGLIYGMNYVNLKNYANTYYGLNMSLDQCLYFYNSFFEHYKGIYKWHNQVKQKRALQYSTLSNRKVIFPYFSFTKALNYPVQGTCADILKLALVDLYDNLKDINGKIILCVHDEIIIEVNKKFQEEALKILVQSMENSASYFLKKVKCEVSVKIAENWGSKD

O=C(CSc1nc2ccccc2s1)Nc1ncc([N+](=O)[O-])s1 [KU0019667]
% inhibition Apo pol 10' (DRC-1, concentration 2.5): 10.9138% | % inhibition Apo pol 10' (DRC-1, concentration 5): 29.1635% | % inhibition Apo pol 10' (DRC-1, concentration 10): 61.6987% | % inhibition Apo pol 10' (DRC-1, concentration 20): 83.6526% | % inhibition Apo pol 10' (DRC-1, concentration 40): 89.1806% | % inhibition Apo pol 10' (DRC-1, concentration 80): 87.7336% | % inhibition Apol 90' (DRC-1, 90', concentration 2.5): 0.4185% | % inhibition Apol 90' (DRC-1, 90', concentration 5): 12.4734% | % inhibition Apol 90' (DRC-1, 90', concentration 10): 42.9699% | % inhibition Apol 90' (DRC-1, 90', concentration 20): 72.9689% | % inhibition Apol 90' (DRC-1, 90', concentration 40): 86.0812% | % inhibition Apol 90' (DRC-1, 90', concentration 80): 87.9131% | % inhibition apPOL 180' (DRC-1, 180', concentration 2.5): -6.305% | % inhibition apPOL 180' (DRC-1, 180', concentration 5): -0.1201% | % inhibition apPOL 180' (DRC-1, 180', concentration 10): 24.654% | % inhibition apPOL 180' (DRC-1, 180', concentration 20): 57.312% | % inhibition apPOL 180' (DRC-1, 180', concentration 40): 80.0815% | % inhibition apPOL 180' (DRC-1, 180', concentration 80): 84.5661% | % inhibition Apo pol 5' (DRC-2, 5', concentration 2.5): 0.175% | % inhibition Apo pol 5' (DRC-2, 5', concentration 5): -22% | % inhibition Apo pol 5' (DRC-2, 5', concentration 10): -38% | % inhibition Apo pol 5' (DRC-2, 5', concentration 20): -73% | % inhibition Apo pol 5' (DRC-2, 5', concentration 40): -86% | % inhibition Apo pol 5' (DRC-2, 5', concentration 80): -130% | % inhibition Apol 40' (DRC-2, 40', concentration 2.5): -1.35% | % inhibition Apol 40' (DRC-2, 40', concentration 5): -10% | % inhibition Apol 40' (DRC-2, 40', concentration 10): -13% | % inhibition Apol 40' (DRC-2, 40', concentration 20): -32% | % inhibition Apol 40' (DRC-2, 40', concentration 40): -29% | % inhibition Apol 40' (DRC-2, 40', concentration 80): -70% | % inhibition ApPOL 90' (DRC-2, 90', concentration 2.5): -3% | % inhibition ApPOL 90' (DRC-2, 90', concentration 5): -10% | % inhibition ApPOL 90' (DRC-2, 90', concentration 10): -10% | % inhibition ApPOL 90' (DRC-2, 90', concentration 20): -23% | % inhibition ApPOL 90' (DRC-2, 90', concentration 40): -14% | % inhibition ApPOL 90' (DRC-2, 90', concentration 80): -45% | % inhibition apPOL 180' (DRC-2, 180', concentration 2.5): -13% | % inhibition apPOL 180' (DRC-2, 180', concentration 5): -17% | % inhibition apPOL 180' (DRC-2, 180', concentration 10): -18% | % inhibition apPOL 180' (DRC-2, 180', concentration 20): -23% | % inhibition apPOL 180' (DRC-2, 180', concentration 40): -7% | % inhibition apPOL 180' (DRC-2, 180', concentration 80): -23% | % inhibition apPOL 180' (conc. 2.5, 180', DRC-2): -13% | % inhibition Apol 40' (conc. 5, 40', DRC-2): -10% | % inhibition ApPOL 90' (conc. 5, 90', DRC-2): -10% | % inhibition Apol 40' (conc. 10, 40', DRC-2): -13% | % inhibition ApPOL 90' (conc. 10, 90', DRC-2): -10% | % inhibition ApPOL 90' (conc. 20, 90', DRC-2): -23% | % inhibition apPOL 180' (conc. 20, 180', DRC-2): -23% | % inhibition apPOL 180' (conc. 80, 180', DRC-2): -23% | DNA Pol [1]: 67 | DNA Pol [2]: 67

COc1ccccc1CCC(=O)N1CCc2c(nc3cc(-c4ccccc4)[nH]n3c2=O)C1 [Molecule 7]
IC50: 7.2 µM

O=C(O)c1nc(-c2ccccc2)nc2c1OCO2 [Molecule 45]
IC50: 11.2 µM

O=C(c1c[nH]c2ncccc12)N1CCCCCC1 [Molecule 51]
IC50: 21.5 µM

CC(=O)Nc1cc(C(=O)NC(C)C)c2ccc(C)nc2c1 [KU0206312]
% inhibition Apo pol 10' (DRC-1, concentration 2.5): -0.09953% | % inhibition Apo pol 10' (DRC-1, concentration 5): 7.573% | % inhibition Apo pol 10' (DRC-1, concentration 10): 27.7087% | % inhibition Apo pol 10' (DRC-1, concentration 20): 47.6334% | % inhibition Apo pol 10' (DRC-1, concentration 40): 73.4276% | % inhibition Apo pol 10' (DRC-1, concentration 80): 85.3418% | % inhibition Apol 90' (DRC-1, 90', concentration 2.5): -3.317% | % inhibition Apol 90' (DRC-1, 90', concentration 5): -1.224% | % inhibition Apol 90' (DRC-1, 90', concentration 10): 13.9494% | % inhibition Apol 90' (DRC-1, 90', concentration 20): 30.2375% | % inhibition Apol 90' (DRC-1, 90', concentration 40): 59.3171% | % inhibition Apol 90' (DRC-1, 90', concentration 80): 84.495% | % inhibition apPOL 180' (DRC-1, 180', concentration 2.5): -3.391% | % inhibition apPOL 180' (DRC-1, 180', concentration 5): -3.035% | % inhibition apPOL 180' (DRC-1, 180', concentration 10): 6.928% | % inhibition apPOL 180' (DRC-1, 180', concentration 20): 18.5029% | % inhibition apPOL 180' (DRC-1, 180', concentration 40): 47.7981% | % inhibition apPOL 180' (DRC-1, 180', concentration 80): 83.4711% | % inhibition Apo pol 5' (DRC-2, 5', concentration 2.5): 8% | % inhibition Apo pol 5' (DRC-2, 5', concentration 5): 15% | % inhibition Apo pol 5' (DRC-2, 5', concentration 10): 35% | % inhibition Apo pol 5' (DRC-2, 5', concentration 20): 45% | % inhibition Apo pol 5' (DRC-2, 5', concentration 40): 47% | % inhibition Apo pol 5' (DRC-2, 5', concentration 80): 43% | % inhibition Apol 40' (DRC-2, 40', concentration 2.5): 8% | % inhibition Apol 40' (DRC-2, 40', concentration 5): 13% | % inhibition Apol 40' (DRC-2, 40', concentration 10): 34% | % inhibition Apol 40' (DRC-2, 40', concentration 20): 51% | % inhibition Apol 40' (DRC-2, 40', concentration 40): 65% | % inhibition Apol 40' (DRC-2, 40', concentration 80): 67% | % inhibition ApPOL 90' (DRC-2, 90', concentration 2.5): 6.64% | % inhibition ApPOL 90' (DRC-2, 90', concentration 5): 11% | % inhibition ApPOL 90' (DRC-2, 90', concentration 10): 31% | % inhibition ApPOL 90' (DRC-2, 90', concentration 20): 50% | % inhibition ApPOL 90' (DRC-2, 90', concentration 40): 68% | % inhibition ApPOL 90' (DRC-2, 90', concentration 80): 73% | % inhibition apPOL 180' (DRC-2, 180', concentration 2.5): 2% | % inhibition apPOL 180' (DRC-2, 180', concentration 5): 5% | % inhibition apPOL 180' (DRC-2, 180', concentration 10): 20% | % inhibition apPOL 180' (DRC-2, 180', concentration 20): 41% | % inhibition apPOL 180' (DRC-2, 180', concentration 40): 67% | % inhibition apPOL 180' (DRC-2, 180', concentration 80): 78% | % inhibition Apo pol 5' (conc. 2.5, 5', DRC-2): 8% | % inhibition Apol 40' (conc. 2.5, 40', DRC-2): 8% | % inhibition apPOL 180' (conc. 40, 180', DRC-2): 67% | % inhibition Apol 40' (conc. 80, 40', DRC-2): 67% | DNA Pol [1]: 32 | DNA Pol [2]: 32

O=C(O)c1ccc(-c2nc3cc(-c4ccc5nc(-c6ccc(C(=O)O)cc6)[nH]c5c4)ccc3[nH]2)cc1 [Molecule 1, OC(=O)c1ccc(cc1)c1nc2c([nH]1)cc(cc2)c1ccc2c(c1)nc([nH]2)c1ccc(cc1)C(=O)O]
% inhibition Apo pol 10' (DRC-1, concentration 2.5): 4.605% | % inhibition Apo pol 10' (DRC-1, concentration 5): 47.5072% | % inhibition Apo pol 10' (DRC-1, concentration 10): 71.1755% | % inhibition Apo pol 10' (DRC-1, concentration 20): 72.8856% | % inhibition Apo pol 10' (DRC-1, concentration 40): 63.5867% | % inhibition Apo pol 10' (DRC-1, concentration 80): 67.7005% | % inhibition Apol 90' (DRC-1, 90', concentration 2.5): 3.724% | % inhibition Apol 90' (DRC-1, 90', concentration 5): 40.2973% | % inhibition Apol 90' (DRC-1, 90', concentration 10): 67.3465% | % inhibition Apol 90' (DRC-1, 90', concentration 20): 73.5196% | % inhibition Apol 90' (DRC-1, 90', concentration 40): 66.9827% | % inhibition Apol 90' (DRC-1, 90', concentration 80): 77.5146% | % inhibition apPOL 180' (DRC-1, 180', concentration 2.5): 2.544% | % inhibition apPOL 180' (DRC-1, 180', concentration 5): 30.2265% | % inhibition apPOL 180' (DRC-1, 180', concentration 10): 61.3297% | % inhibition apPOL 180' (DRC-1, 180', concentration 20): 73.7422% | % inhibition apPOL 180' (DRC-1, 180', concentration 40): 70.4852% | % inhibition apPOL 180' (DRC-1, 180', concentration 80): 81.7521% | % inhibition Apo pol 5' (DRC-2, 5', concentration 2.5 (unit not given)): 30% | % inhibition Apo pol 5' (DRC-2, 5', concentration 20 (unit not given)): 37% | % inhibition Apo pol 5' (DRC-2, 5', concentration 40 (unit not given)): 37% | % inhibition Apol 40' (DRC-2, 40', concentration 2.5 (unit not given)): 30% | % inhibition Apol 40' (DRC-2, 40', concentration 10 (unit not given)): 32% | % inhibition Apol 40' (DRC-2, 40', concentration 20 (unit not given)): 41% | % inhibition Apol 40' (DRC-2, 40', concentration 80 (unit not given)): 32% | % inhibition ApPOL 90' (DRC-2, 90', concentration 80 (unit not given)): 41% | % inhibition apPOL 180' (DRC-2, 180', concentration 20 (unit not given)): 37% | % inhibition Apo pol 5' (DRC-2, 5', concentration 2.5): 30% | % inhibition Apo pol 5' (DRC-2, 5', concentration 5): 7% | % inhibition Apo pol 5' (DRC-2, 5', concentration 10): 33% | % inhibition Apo pol 5' (DRC-2, 5', concentration 20): 37% | % inhibition Apo pol 5' (DRC-2, 5', concentration 40): 37% | % inhibition Apo pol 5' (DRC-2, 5', concentration 80): 22% | % inhibition Apol 40' (DRC-2, 40', concentration 2.5): 30% | % inhibition Apol 40' (DRC-2, 40', concentration 5): 4% | % inhibition Apol 40' (DRC-2, 40', concentration 10): 32% | % inhibition Apol 40' (DRC-2, 40', concentration 20): 41% | % inhibition Apol 40' (DRC-2, 40', concentration 40): 48% | % inhibition Apol 40' (DRC-2, 40', concentration 80): 32% | % inhibition ApPOL 90' (DRC-2, 90', concentration 2.5): 25% | % inhibition ApPOL 90' (DRC-2, 90', concentration 5): 1.89% | % inhibition ApPOL 90' (DRC-2, 90', concentration 10): 28% | % inhibition ApPOL 90' (DRC-2, 90', concentration 20): 40% | % inhibition ApPOL 90' (DRC-2, 90', concentration 40): 53% | % inhibition ApPOL 90' (DRC-2, 90', concentration 80): 41% | % inhibition apPOL 180' (DRC-2, 180', concentration 2.5): 14% | % inhibition apPOL 180' (DRC-2, 180', concentration 5): -1.88% | % inhibition apPOL 180' (DRC-2, 180', concentration 10): 20% | % inhibition apPOL 180' (DRC-2, 180', concentration 20): 37% | % inhibition apPOL 180' (DRC-2, 180', concentration 40): 56% | % inhibition apPOL 180' (DRC-2, 180', concentration 80): 49% | DNA Pol [2]: 68 | DNA Pol (primary screen value, head "DNA Pol", unit not given): 68
